From patent publication US12643910B2, “Substituted pyrazolo[3,4-b]pyridines as ectonucleotide pyrophosphatase/phosphodiesterase 1 (ENPP1) modulators” (SANFORD BURNHAM PREBYS MEDICAL DISCOVERY INSTITUTE, priority 2019, dated 2026)

What was measured:
human ENPP1 = target: T1, human ENPP1 (Homo sapiens, UniProt P22413); test: ENPP1 assay with ATP substrate (Transcreener AMP2/GMP2 TR-FRET); format: biochemical; details: 1 hour at room temperature
T1 construct: made in house
T1 sequence (P22413 1-925): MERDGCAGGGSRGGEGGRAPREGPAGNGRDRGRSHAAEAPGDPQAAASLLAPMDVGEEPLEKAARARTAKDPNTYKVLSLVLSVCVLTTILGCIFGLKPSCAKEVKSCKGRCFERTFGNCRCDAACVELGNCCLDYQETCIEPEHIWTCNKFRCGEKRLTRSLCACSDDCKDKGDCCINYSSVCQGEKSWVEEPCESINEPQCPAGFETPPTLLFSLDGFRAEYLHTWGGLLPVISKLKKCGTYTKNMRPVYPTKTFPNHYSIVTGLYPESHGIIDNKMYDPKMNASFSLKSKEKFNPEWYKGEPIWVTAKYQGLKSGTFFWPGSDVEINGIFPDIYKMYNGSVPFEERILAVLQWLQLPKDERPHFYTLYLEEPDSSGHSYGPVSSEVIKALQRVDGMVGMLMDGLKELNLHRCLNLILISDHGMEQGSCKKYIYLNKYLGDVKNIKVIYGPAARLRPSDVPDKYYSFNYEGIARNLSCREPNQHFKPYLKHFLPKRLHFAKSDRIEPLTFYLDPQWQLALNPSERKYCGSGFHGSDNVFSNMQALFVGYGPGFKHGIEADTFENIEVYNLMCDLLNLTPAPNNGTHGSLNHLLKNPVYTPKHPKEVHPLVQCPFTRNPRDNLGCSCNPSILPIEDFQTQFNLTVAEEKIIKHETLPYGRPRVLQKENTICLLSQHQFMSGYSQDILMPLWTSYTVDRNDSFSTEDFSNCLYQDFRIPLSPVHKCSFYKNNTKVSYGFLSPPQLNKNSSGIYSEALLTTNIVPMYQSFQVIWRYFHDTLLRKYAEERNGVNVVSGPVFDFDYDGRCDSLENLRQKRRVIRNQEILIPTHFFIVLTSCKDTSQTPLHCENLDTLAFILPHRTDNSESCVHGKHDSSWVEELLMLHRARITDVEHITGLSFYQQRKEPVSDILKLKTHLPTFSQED
Procedure, shortened: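 Reaction ran 1 h at room temperature in pH 7.5 Tris with MgCl2, TCEP, Tween 20 and 1% DMSO. ATP was added as a 300 nM stock and enzyme as an 8.5 μM stock. After EDTA stop, AMP was read by TR-FRET tracer displacement. Percent inhibition used enzyme/no-enzyme controls; IC50 was fitted with a variable slope.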

ENPP3 = target: T2, ENPP3 (Homo sapiens, UniProt O14638); test: ENPP3 Km ATP assay; format: biochemical; details: ATP at Km
T2 sequence (O14638 1-875): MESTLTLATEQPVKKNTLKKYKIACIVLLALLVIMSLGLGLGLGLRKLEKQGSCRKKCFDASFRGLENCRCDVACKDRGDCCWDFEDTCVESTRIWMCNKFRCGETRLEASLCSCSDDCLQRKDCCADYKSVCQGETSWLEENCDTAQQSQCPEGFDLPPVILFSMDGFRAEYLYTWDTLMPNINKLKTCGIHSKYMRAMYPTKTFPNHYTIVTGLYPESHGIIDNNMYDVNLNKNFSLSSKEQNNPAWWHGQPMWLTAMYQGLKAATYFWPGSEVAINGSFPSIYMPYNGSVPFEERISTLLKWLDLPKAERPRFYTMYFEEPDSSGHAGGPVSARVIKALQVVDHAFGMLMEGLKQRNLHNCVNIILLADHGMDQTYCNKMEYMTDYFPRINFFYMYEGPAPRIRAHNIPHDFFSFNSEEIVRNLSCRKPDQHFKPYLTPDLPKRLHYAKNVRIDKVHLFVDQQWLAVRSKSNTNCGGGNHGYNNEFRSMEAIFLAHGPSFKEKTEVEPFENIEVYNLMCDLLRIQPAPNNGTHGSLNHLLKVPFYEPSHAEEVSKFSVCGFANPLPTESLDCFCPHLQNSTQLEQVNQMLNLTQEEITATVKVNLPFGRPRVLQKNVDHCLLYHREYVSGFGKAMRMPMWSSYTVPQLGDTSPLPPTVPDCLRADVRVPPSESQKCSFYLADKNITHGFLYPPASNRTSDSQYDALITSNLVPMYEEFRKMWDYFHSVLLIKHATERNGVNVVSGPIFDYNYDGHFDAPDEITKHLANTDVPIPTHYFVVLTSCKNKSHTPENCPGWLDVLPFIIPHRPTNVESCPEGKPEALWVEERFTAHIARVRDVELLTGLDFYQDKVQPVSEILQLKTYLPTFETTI

Structure (SMILES)	IC50 (human ENPP1) [µM]	IC50 (ENPP3) [µM]
Cn1ncc2c(NCc3ccc(S(N)(=O)=O)cc3)nc(NC3CC3)nc21 [Example 2.35, 4-(((6-(Cyclopropylamino)-1-methyl-1H-pyrazolo[3,4-d]pyrimidin-4-yl)amino)methyl)-benzenesulfonamide]	0.1 to 1	0.1 to 1
COCCCNc1nc(NCc2ccc(S(N)(=O)=O)cc2)c2c(-c3ccccc3)csc2n1 [Example 1.56, 4-((2-(3-Methoxypropyl)amino-5-phenylthieno[2,3-d]pyrimidin-4-yl)aminomethyl)-benzenesulfonamide]	< 0.1	< 0.1
Cn1ncc2c(NCc3ccc(S(N)(=O)=O)c(F)c3)ncnc21 [Example 2.1, 2-Fluoro-4-(((1-methyl-1H-pyrazolo[3,4-d]pyrimidin-4-yl)amino)methyl)-benzenesulfonamide]	< 0.1	1 to 20
CN1CCN(c2nc(NCc3ccc(S(N)(=O)=O)cc3)c3c(-c4ccccc4)csc3n2)CC1 [Example 1.25, 4-(((2-(4-Methylpiperazin-1-yl)-5-phenylthieno[2,3-d]pyrimidin-4-yl)amino)methyl)-benzenesulfonamide]	< 0.1	< 0.1
Cn1ncc2c(NCc3ccc(S(N)(=O)=O)cc3)nc(OCC(F)(F)F)nc21 [Example 2.99, 4-((6-(2,2,2-Trifluoroethoxy)-1-methyl-1H-pyrazolo[3,4-d]pyrimidin-4-yl)aminomethyl)-benzenesulfonamide]	0.1 to 1	0.1 to 1
CCNc1cc(NCc2ccc(S(N)(=O)=O)cc2)c2cnn(C)c2n1 [Example 2.75, 4-(((6-(Ethylamino)-1-methyl-1H-pyrazolo[3,4-b]pyridin-4-yl)amino)methyl)-benzenesulfonamide]	0.1 to 1	1 to 20
Cn1ncc2c(NCc3ccc(S(N)(=O)=O)cc3)nc(N3CCCCC3)nc21 [Example 2.14, 4-(((1-Methyl-6-(piperidin-1-yl)-1H-pyrazolo[3,4-d]pyrimidin-4-yl)amino)methyl)-benzenesulfonamide]	1 to 20	0.1 to 1
Cc1csc2c(N3CCC(NC(=O)CCc4ccnc(Br)c4)CC3)ncnc12 [Example 3.9]	1 to 20	> 20
NS(=O)(=O)c1ccc(CNc2nc(N3CCOCC3)nc3scc(-c4ccccc4)c23)cc1 [Example 1.38, 4-(((2-Morpholino-5-phenylthieno[2,3-d]pyrimidin-4-yl)amino)methyl)-benzenesulfonamide]	< 0.1	< 0.1
Cn1ncc2c(NCc3ccc(S(N)(=O)=O)cc3)cnnc21 [Example 2.55, 4-(((1-Methyl-1H-pyrazolo[3,4-c]pyridazin-4-yl)amino)methyl)benzenesulfonamide]	0.1 to 1	1 to 20
Fc1ccc(CCCNC2CCN(c3ncnc4ccsc34)CC2)cc1 [Example 3.47, N-(3-(4-Fluorophenyl)propyl)-1-(thieno[3,2-d]pyrimidin-4-yl)piperidin-4-amine]	1 to 20	> 20
NS(=O)(=O)c1ccc(CNc2ncnc3scc(C4=CCCCC4)c23)cc1 [Example 1.69, 4-((5-(1-Cyclohexenyl)thieno[2,3-d]pyrimidin-4-yl)aminomethyl)benzenesulfonamide]	> 20	0.1 to 1
Cn1ncc2c(NCc3ccc(S(N)(=O)=O)cc3)ncnc21 [Example 2.25, 4-(((1-Methyl-1H-pyrazolo[3,4-d]pyrimidin-4-yl)amino)methyl)benzenesulfonamide]	< 0.1	1 to 20
Cn1ncc2c(NCc3ccc(S(N)(=O)=O)cc3)nc(Nc3ccccc3)nc21 [Example 2.50, 4-(((1-Methyl-6-(phenylamino)-1H-pyrazolo[3,4-d]pyrimidin-4-yl)amino)methyl)-benzenesulfonamide]	< 0.1	0.1 to 1
NS(=O)(=O)c1ccc(CNc2nc(-c3ccccn3)nc3scc(-c4ccccc4)c23)cc1C(F)(F)F [Example 1.14, 4-(((5-Phenyl-2-(pyridin-2-yl)thieno[2,3-d]pyrimidin-4-yl)amino)methyl)-2-(trifluoromethyl)benzenesulfonamide]	< 0.1	0.1 to 1
Cn1nc(-c2ccccn2)c2c(NCc3ccc(S(N)(=O)=O)cc3)nc(Cl)nc21 [Example 2.124, 4-((6-Chloro-1-methyl-3-(2-pyridyl)-1H-pyrazolo[3,4-d]pyrimidin-4-yl)aminomethyl)benzenesulfonamide]	0.1 to 1	0.1 to 1
Cn1ncc2c(NCc3ccc(S(N)(=O)=O)cc3)cc(N3CCOCC3)nc21 [Example 2.82, 4-(((1-Methyl-6-morpholino-1H-pyrazolo[3,4-b]pyridin-4-yl)amino)methyl)-benzenesulfonamide]	1 to 20	1 to 20
Cn1ncc2c(NCc3ccc(S(N)(=O)=O)cc3)nncc21 [Example 2.56, 4-(((1-Methyl-1H-pyrazolo[3,4-d]pyridazin-4-yl)amino)methyl)benzenesulfonamide]	> 20	> 20
CCn1ncc2c(NCc3ccc(S(N)(=O)=O)cc3)nc(Cl)nc21 [Example 2.83, 4-((6-Chloro-1-ethyl-1H-pyrazolo[3,4-d]pyrimidin-4-yl)aminomethyl)benzenesulfonamide]	< 0.1	1 to 20
Cc1csc2c(N3CCC(NCCc4ccc(F)cc4)CC3)ncnc12 [Example 3.44, N-(4-Fluorophenethyl)-1-(7-methylthieno[3,2-d]pyrimidin-4-yl)piperidin-4-amine]	0.1 to 1	> 20
CCNc1cc(NCc2ccc(S(N)(=O)=O)cc2F)c2cnn(C)c2n1 [Example 2.144, 4-(((6-(Ethylamino)-1-methyl-1H-pyrazolo[3,4-b]pyridin-4-yl)amino)methyl)-3-fluorobenzenesulfonamide]	0.1 to 1	0.1 to 1
Cn1ncc2c(NCc3ccc(S(N)(=O)=O)cc3F)nc(Cl)nc21 [Example 2.140, 4-(((6-Chloro-1-methyl-1H-pyrazolo[3,4-d]pyrimidin-4-yl)amino)methyl)-3-fluorobenzenesulfonamide]	0.1 to 1	0.1 to 1
Cc1nsc2c(N3CCC(NCCCc4ccc(F)cc4)CC3)ncnc12 [Example 3.59, N-(3-(4-Fluorophenyl)propyl)-1-(3-methylisothiazolo[4,5-d]pyrimidin-7-yl)piperidin-4-amine]	1 to 20	> 20
Cn1ncc2c(NCc3ccc(S(N)(=O)=O)cc3Cl)ncnc21 [Example 2.47, 3-Chloro-4-(((1-methyl-1H-pyrazolo[3,4-d]pyrimidin-4-yl)amino)methyl)-benzenesulfonamide]	0.1 to 1	1 to 20
Cn1ncc2c(NCc3ccc(S(N)(=O)=O)cc3)cc(NCCO)nc21 [Example 2.81, 4-(((6-((2-Hydroxyethyl)amino)-1-methyl-1H-pyrazolo[3,4-b]pyridin-4-yl)amino)methyl)-benzenesulfonamide]	1 to 20	1 to 20
Cn1ncc2c(NCc3ccc(S(N)(=O)=O)c(C(F)(F)F)c3)ncnc21 [Example 2.41, 4-(((1-Methyl-1H-pyrazolo[3,4-d]pyrimidin-4-yl)amino)methyl)-2-(trifluoromethyl)-benzenesulfonamide]	0.1 to 1	1 to 20
